PMC7083880 (Nature Communications, 2020)

Tests used:
[1] = system: L5178Y TK+/− mouse lymphoma cells
Experimental: The idea was to reproduce the metabolizing conditions prevailing in the liver.
This was followed by a 24-h recovery period when the experiment was performed in the presence of Aroclor-induced rat liver S9 metabolizing mix (at 2% final concentration). […] The nuclei were then stained with Giemsa before counting the micronuclei among 1000 mononucleated cells.

HeLa cells [2] = assay: Toxicity assay: adenylate kinase activity in culture medium; type: cell-based, human; settings: 24 h; for Adenylate kinase activity in culture medium: STS 2µM
Experimental: The toxicity assay was performed 24 h after starting cell treatment. The cell culture supernatant was centrifuged at 6000×g for 10 min to pellet cells and cell debris. One-twentieth of the supernatant was then used to measure adenylate kinase activity according to the supplier’s protocol (Lonza Biosciences, Basel, Switzerland).

HeLa cells [3] = assay: MTT colorimetric toxicity assay; type: cell-based; settings: STS 2µM, 24 h
Experimental: incubated in cell culture medium containing 0.5 mg/ml 3-(4,5-dimethylthiazol-2-yl)-2,5-diphenyltetrazolium bromide (MTT) for 2 h at 37°C. The cells were then incubated for 30 min at 37°C in the solubilization solution (isopropanol/1N HCl 23:1) before collecting the supernatant to measure the absorbance at 540 and 620 nm for the background.
Supplementary Figure 4. […] (A) HeLa cells were incubated with propidium iodide after […]
staurosporine (STS). (B) HeLa cells were incubated with MTT after treatment for 24 h with […]
The results presented are representative of two independent experiments at least. Error bar= S.D., p-values (p) were calculated using Student's t-test. Source data are provided as a Source Data file.
(also on this page, place not known: % dead Colorimetry measure (au) cells of) […]

nonsense mutations = system: nonsense mutations; design: method as in PMID 28096517; settings: cited from earlier work

`O=P1(N(CCCl)CCCl)NCCCO1` (centres unmarked) [Cyclopho sphamide, cyclophosphamide] gave a Micronucleated cells [1] of 60.

For `CN[C@@H]1C[C@H]2O[C@@](C)([C@@H]1OC)n1c3ccccc3c3c4c(c5c6ccccc6n2c5c31)C(=O)NC4` [STS, staurosporine, reference compound], the “Release of adenylate kinase, in words” value (HeLa cells [2]) was “released adenylate kinase”, the “Adenylate kinase activity in culture medium” value (shortened to “Adenylate kinase activity”) (HeLa cells [2]; average) was 1755878 and the “Adenylate kinase activity” value (HeLa cells [2]; experiment 1) was 1822755. For the same molecule, the “Adenylate kinase activity” value (HeLa cells [2]; experiment 2) was 1498272, the “Adenylate kinase activity” value (HeLa cells [2]; experiment 3) was 1946608 and the MTT colorimetry measure (HeLa cells [3]; average) was 0.183 au. It also gave an MTT colorimetry measure (HeLa cells [3]; experiment 1) of 0.0455 au, an MTT colorimetry measure (HeLa cells [3]; experiment 2) of 0.1825 au and an MTT colorimetry measure (HeLa cells [3]; experiment 3) of 0.321 au.

In the case of `Nc1ncnc(N[C@@H]2O[C@H](CO)[C@@H](O)[C@H]2O)c1[N+](=O)[O-]` [clitocine, (2R,3R,4S,5R)-2-[(6-amino-5-nitropyrimidin-4-yl)amino]-5-(hydroxymethyl)oxolane-3,4-diol], the “Nonsense mutation correction compared to G418” value (nonsense mutations) is listed as “correct nonsense mutations more efficiently than G418”.
